Results reported in article PMC8402715 (Viruses, 2021).

Legend:
[1] = tested on: host genes in mock-infected RPE cells; type: cell-based, human; details: 10 μM, 8 h; for expression of PTGS2: mock-infected RPE cells; for expression of PDE4D, CRISPLD2 and PTGES / expression of SLC26A4, FAM111B and CCNE2: non-infected RPE cells, compared to non-treated cells
[2] = tested on: host genes in FLUAV-infected RPE cells; type: cell-based, human; details: 10 μM, 8 h; for expression of PTGS2: virus-infected RPE cells (FLUAV moi 1); for FLUAV-activated host gene expression: FLUAV-infected RPE cells (moi 1)
[3] = tested on: FLUAV-infected RPE cells; experiment: Metabolomics of polar metabolites in media of FLUAV-infected RPE cells; details: infected RPE cells (FLUAV moi 1), 10 μM, 24 h
[4] = tested on: viral RNAs of influenza A/WSN/33(H1N1) virus; type: cell-based, influenza A virus in human RPE cells
[5] = Cell viability assay (Cell Titer Glow) in mock-infected RPE cells, cytotoxicity; details: human

Structure (SMILES)	expression of PTGS2 [1]	expression of PTGS2 [2]	levels of many polar metabolites in the media [3]	CC50 at 48 h [5] [µM]	other results
COC(=O)C1=C(C)NC(C)=C(C(=O)OC(C)(C)CN(C)CCC(c2ccccc2)c2ccccc2)C1c1cccc([N+](=O)[O-])c1 (stereo not shown) [lercanidipine, Lercanidipine]	increased	increased			
CC(=O)Nc1ccc(O)cc1 [4-acetamidophenol]			elevated		
COc1ccc2nc([S@@+]([O-])Cc3ncc(C)c(OC)c3C)[nH]c2c1 [esomeprazole, Esomeprazole]	increased	increased			
CN(C)C(=N)N=C(N)N [metformin, Metformin]					effect on polyadenylated viral RNAs [4]: differentially affected
CCOC(=O)C1=C(COCCN)NC(C)=C(C(=O)OC)C1c1ccccc1Cl (stereo not shown) [amlodipine, Amlodipine]	increased	increased	elevated		
CN[C@H]1CC[C@@H](c2ccc(Cl)c(Cl)c2)c2ccccc21 [sertraline, Sertraline]	increased	increased		17.5	
C#C[C@]1(O)CC[C@H]2[C@@H]3CCc4cc(O)ccc4[C@H]3CC[C@@]21C [17a-ethynylestradiol]			elevated		
C[C@]12CCC(=O)C=C1[C@@H]1C[C@@H]1[C@H]1[C@@H]3[C@@H]4C[C@@H]4[C@@]4(CCC(=O)O4)[C@@]3(C)CC[C@@H]12 [drospirenone, Drospirenone]	increased	increased			
CCOc1nc2cccc(C(=O)O)c2n1Cc1ccc(-c2ccccc2-c2nnn[nH]2)cc1 [candesartan, Candesartan]			elevated		
CC(C)(C)NCC(O)c1ccc(O)c(CO)c1 (stereo not shown) [salbutamol, Salbutamol]					expression of PDE4D, CRISPLD2 and PTGES [1]: increased; expression of SLC26A4, FAM111B and CCNE2 [1]: decreased; FLUAV-activated host gene expression [2]: did not affect
C=C1CC[C@H](O)C/C1=C/C=C1\CCC[C@]2(C)[C@@H]([C@H](C)CCCC(C)C)CC[C@@H]12 [vitamin D3, Vitamin D3 (colecalciferol)]				48.8	
CCCCNc1cc(C(=O)O)cc(S(N)(=O)=O)c1Oc1ccccc1 [bumetanide, Bumetanide]			elevated		
C=C1CC[C@H](O)C/C1=C/C=C1\CCC[C@]2(C)[C@@H]([C@H](C)/C=C/[C@H](C)C(C)C)CC[C@@H]12 [vitamin D2, Vitamin D2]				42.1	
OCc1cc(C(O)CNCCCCCCOCCCCc2ccccc2)ccc1O (stereo not shown) [salmeterol, Salmeterol]				29.3	expression of PDE4D, CRISPLD2 and PTGES [1]: increased; expression of SLC26A4, FAM111B and CCNE2 [1]: decreased; FLUAV-activated host gene expression [2]: did not affect
C#C[C@]1(O)CC[C@H]2[C@@H]3CCC4=CCCC[C@@H]4[C@H]3C(=C)C[C@@]21CC [desogestrel, Desogestrel]				34.5	
CC(=O)Oc1ccccc1C(=O)O [acetylsalicylic acid, Acetylsalicylic acid]			elevated		
CCC(C)(C)C(=O)O[C@H]1C[C@@H](C)C=C2C=C[C@H](C)[C@H](CC[C@@H]3C[C@@H](O)CC(=O)O3)[C@H]21 [simvastatin, Simvastatin]	increased	increased		48.3	
